# Data taken from patent US12187816B2, “Macrocyclic compounds and methods of use thereof” (Genentech, Inc., priority 2020, dated 2025).
# Starred links: 1 amine or outer side, 2 acyl side, 3 side chain; linkers in the order of their positions; H or OH if unused. Non-standard residues stand in square brackets, D forms with d. Residues, ends and D or L forms follow the SMILES beside them. *: point of attachment. JQ1acid = Cc1sc2c(c1C)C(c1ccc(Cl)cc1)=N[C@@H](CC(=O)*)c1nnc(C)n1-2; X9 = O=C(C[C@@H](Cc1ccc(-c2ccccc2)cc1)N[*:1])[*:2]; dBip = N[C@H](Cc1ccc(-c2ccccc2)cc1)C(=O)O; Ile(3-Me) = CCC(C)(C)[C@H](N)C(=O)O; Hyp = O=C(O)[C@@H]1C[C@@H](O)CN1; Tle = CC(C)(C)[C@H](N)C(=O)O; X8 = CN(CCOCC(=O)[*:2])[*:1]; dDap = NC[C@@H](N)C(=O)O; Ahp = NCCCCCCC(=O)O; Ahx = NCCCCCC(=O)O; AEA = NCCOCC(=O)O; GABA = NCCCC(=O)O; βAla = NCCC(=O)O
# Biological target: T1, BRD4 (Homo sapiens, UniProt O60885)
# T1 construct: Mean 488 intensity of BRD4 quantitated in nuclear region; endogenous in cells; host or cells: EoL-1 eosinophilic leukemia cells
# Test: BRD4 degradation assay in EOL1 cells (immunofluorescence imaging)
# Type: cell-based
# Details: EoL-1 eosinophilic leukemia cells, 4 hours treatment, nuclear BRD4 immunofluorescence
# Procedure, shortened: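 EoL-1 cells treated 4 h at 37 °C with 20-point 1/3 serial dilutions (0.2% DMSO) in RPMI/10% FBS, then fixed and immunostained for BRD4. Mean nuclear BRD4 intensity measured by high-content imaging, with Hoechst nuclear masking. DMSO and no-primary-antibody controls define 0 and 100%; DC50 and maximal effect from dose-response fit.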
row,Structure (SMILES),DC50 [nM]
1,Cc1sc2c(c1C)C(c1ccc(Cl)cc1)=N[C@@H](CC(=O)NC[C@H]1NC(=O)[C@@H](C)NC(=O)[C@@H](Cc3ccc(-c4ccccc4)cc3)NC(=O)[C@@H]3C[C@@H](O)CN3C(=O)[C@H](C(C)(C)C)NC(=O)COCCNC1=O)c1nnc(C)n1-2 [Compound 58] (cyclo([AEA][Tle][Hyp][dBip][dA][dDap](JQ1acid))),< 50
2,Cc1sc2c(c1C)C(c1ccc(Cl)cc1)=N[C@@H](CC(=O)NC[C@H]1NC(=O)CCNC(=O)[C@@H](Cc3ccc(-c4ccccc4)cc3)NC(=O)[C@@H]3C[C@@H](O)CN3C(=O)[C@H](C(C)(C)C)NC(=O)COCCNC1=O)c1nnc(C)n1-2 [Compound 62] (cyclo([AEA][Tle][Hyp][dBip][βAla][dDap](JQ1acid))),< 1000
3,Cc1sc2c(c1C)C(c1ccc(Cl)cc1)=N[C@@H](CC(=O)NC[C@H]1NC(=O)[C@@H](C)NC(=O)[C@@H](Cc3ccc(-c4ccccc4)cc3)NC(=O)[C@@H]3C[C@@H](O)CN3C(=O)[C@H](C(C)(C)C)NC(=O)COCCN(C)C1=O)c1nnc(C)n1-2 [Compound 63] (cyclo([Hyp][dBip][dA][dDap](JQ1acid)[X8][Tle])),< 50
4,Cc1sc2c(c1C)C(c1ccc(Cl)cc1)=N[C@@H](CC(=O)NC[C@H]1NC(=O)CNC(=O)C[C@@H](Cc3ccc(-c4ccccc4)cc3)NC(=O)[C@@H]3C[C@@H](O)CN3C(=O)[C@H](C(C)(C)C)NC(=O)COCCNC1=O)c1nnc(C)n1-2 [Compound 64] (cyclo([AEA][Tle][Hyp][X9]G[dDap](JQ1acid))),> 20000
5,Cc1sc2c(c1C)C(c1ccc(Cl)cc1)=N[C@@H](CC(=O)NC[C@H]1NC(=O)[C@@H](C)NC(=O)C[C@@H](Cc3ccc(-c4ccccc4)cc3)NC(=O)[C@@H]3C[C@@H](O)CN3C(=O)[C@H](C(C)(C)C)NC(=O)COCCNC1=O)c1nnc(C)n1-2 [Compound 65] (cyclo([AEA][Tle][Hyp][X9][dA][dDap](JQ1acid))),> 20000
6,Cc1sc2c(c1C)C(c1ccc(Cl)cc1)=N[C@@H](CC(=O)NC[C@H]1NC(=O)[C@@H](CCC(N)=O)NC(=O)[C@@H](Cc3ccc(-c4ccccc4)cc3)NC(=O)[C@@H]3C[C@@H](O)CN3C(=O)[C@H](C(C)(C)C)NC(=O)COCCNC1=O)c1nnc(C)n1-2 [Compound 66] (cyclo([AEA][Tle][Hyp][dBip][dQ][dDap](JQ1acid))),< 1000
7,Cc1sc2c(c1C)C(c1ccc(Cl)cc1)=N[C@@H](CC(=O)NC[C@H]1CCCNC(=O)[C@@H](Cc3ccc(-c4ccccc4)cc3)NC(=O)[C@@H]3C[C@@H](O)CN3C(=O)[C@H](C(C)(C)C)NC(=O)COCCNC1=O)c1nnc(C)n1-2 [Compound 67],< 50

# Next, values leading:
row,DC50 [nM],Structure (SMILES)
1,< 50,CCC(C)(C)[C@@H]1NC(=O)COCCNC(=O)[C@@H](CNC(=O)C[C@@H]2N=C(c3ccc(Cl)cc3)c3c(sc(C)c3C)-n3c(C)nnc32)NC(=O)[C@@H](C)NC(=O)[C@@H](Cc2ccc(-c3ccccc3)cc2)NC(=O)[C@@H]2C[C@@H](O)CN2C1=O [Compound 57] (cyclo([AEA][Ile(3-Me)][Hyp][dBip][dA][dDap](JQ1acid)))
2,< 1000,Cc1sc2c(c1C)C(c1ccc(Cl)cc1)=N[C@@H](CC(=O)NC[C@H]1NC(=O)[C@@H](C)NC(=O)[C@@H](Cc3ccc(-c4ccccc4)cc3)NC(=O)[C@@H]3C[C@@H](O)CN3C(=O)[C@H](C(C)(C)C)NC(=O)CCCNC1=O)c1nnc(C)n1-2 [Compound 59] (cyclo([GABA][Tle][Hyp][dBip][dA][dDap](JQ1acid)))
3,< 50,Cc1sc2c(c1C)C(c1ccc(Cl)cc1)=N[C@@H](CC(=O)NC[C@H]1NC(=O)[C@@H](C)NC(=O)[C@@H](Cc3ccc(-c4ccccc4)cc3)NC(=O)[C@@H]3C[C@@H](O)CN3C(=O)[C@H](C(C)(C)C)NC(=O)CCCCCNC1=O)c1nnc(C)n1-2 [Compound 60] (cyclo([Ahx][Tle][Hyp][dBip][dA][dDap](JQ1acid)))
4,< 50,Cc1sc2c(c1C)C(c1ccc(Cl)cc1)=N[C@@H](CC(=O)NC[C@H]1NC(=O)[C@@H](C)NC(=O)[C@@H](Cc3ccc(-c4ccccc4)cc3)NC(=O)[C@@H]3C[C@@H](O)CN3C(=O)[C@H](C(C)(C)C)NC(=O)CCCCCCNC1=O)c1nnc(C)n1-2 [Compound 61] (cyclo([Ahp][Tle][Hyp][dBip][dA][dDap](JQ1acid)))
